Measured values: article PMC10247784, “Physiological activation of human and mouse bitter taste receptors by bile acids” (Communications Biology, 2023)

Target: T1, mouse Tas2r108 (Mus musculus, UniProt Q9JKT3)
T1 construct: expressed in transfected cells; host or cells: HEK293T-Gα16gust44
T1 sequence (Q9JKT3 1-297): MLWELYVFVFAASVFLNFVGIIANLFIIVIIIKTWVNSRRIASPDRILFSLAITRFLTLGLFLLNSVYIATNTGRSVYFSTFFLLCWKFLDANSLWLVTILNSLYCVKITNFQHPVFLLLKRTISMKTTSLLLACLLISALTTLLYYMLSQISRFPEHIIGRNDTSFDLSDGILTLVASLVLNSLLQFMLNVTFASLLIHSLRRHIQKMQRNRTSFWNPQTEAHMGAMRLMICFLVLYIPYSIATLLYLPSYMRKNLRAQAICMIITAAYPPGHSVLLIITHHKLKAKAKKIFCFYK
Assay: Calcium imaging assay (FLIPR), HEK293T-Gα16gust44 cells transfected with mouse Tas2r108
Format: cell-based
Procedure, shortened: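 Read-out is Fluo-4 fluorescence change (ΔF/F) after automated application of bile acids (DMSO stocks) to transiently transfected cells. Values are corrected for empty-vector cells and normalized to buffer. Dose-response from three independent experiments in duplicate; threshold concentration set at p < 0.01 versus mock.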

RLU (Time 0 s): 0 RLU
RLU (Time 2 s): 10.4901 RLU
RLU (Time 4 s): 7.695 RLU
RLU (Time 6 s): 13.3996 RLU
RLU (Time 8 s): 21.0752 RLU
RLU (Time 12 s): 15.5762 RLU
RLU (Time 14 s): 3.43 RLU
RLU (Time 16 s): -9.281 RLU
RLU (Time 18 s): 0.8467 RLU
RLU (Time 137.562 s): 460.71 RLU
RLU (Time 143.562 s): 496.814 RLU
RLU (Time 149.562 s): 503.436 RLU
RLU (Time 155.562 s): 499.263 RLU
RLU (Time 161.562 s): 506.022 RLU
RLU (Time 167.562 s): 509.176 RLU
RLU (Time 173.562 s): 514.108 RLU
RLU (Time 179.562 s): 522.581 RLU
RLU (Time 185.562 s): 531.86 RLU
RLU (Time 191.562 s): 528.694 RLU
RLU (Time 197.562 s): 533.421 RLU
RLU (Time 203.562 s): 538.761 RLU
RLU (Time 209.562 s): 521.511 RLU
RLU (Time 215.562 s): 533.378 RLU
RLU (Time 221.562 s): 492.546 RLU
RLU (Time 227.562 s): 477.486 RLU
RLU (Time 233.562 s): 488.911 RLU
RLU (Time 239.562 s): 493.745 RLU
RLU (Time 245.562 s): 495.953 RLU
RLU (Time 293.562 s): 458.186 RLU
RLU (Time 299.562 s): 441.037 RLU
RLU (Time 305.562 s): 416.756 RLU
RLU (Time 311.562 s): 430.852 RLU
RLU (Time 317.562 s): 450.794 RLU
RLU (Time 323.562 s): 427.048 RLU
RLU (Time 329.562 s): 431.797 RLU
RLU (Time 335.562 s): 432.3 RLU
RLU (Time 341.562 s): 422.32 RLU
RLU (Time 347.562 s): 429.258 RLU
RLU (Time 353.562 s): 427.233 RLU
RLU (Time 359.562 s): 399.693 RLU
Activation threshold concentration Tas2r108 (p < 0.01 vs empty vector): 10 µM
RLU (time 18.797 s): 15.4 RLU
RLU (time 20.797 s): -4.333 RLU
RLU (time 22.797 s): -28.7534 RLU
RLU (time 24.797 s): -22.8768 RLU
RLU (time 26.797 s): 16.5718 RLU
RLU (time 28.797 s): 18.9437 RLU
RLU (time 30.797 s): 58.8166 RLU
RLU (time 32.797 s): 83.6402 RLU
RLU (time 34.797 s): 79.9664 RLU
RLU (time 36.797 s): 112.495 RLU
RLU (time 38.797 s): 144 RLU
RLU (time 40.797 s): 169.562 RLU
RLU (time 42.797 s): 181.196 RLU
RLU (time 44.797 s): 204.676 RLU
RLU (time 46.797 s): 240.06 RLU
RLU (time 48.797 s): 220.167 RLU
RLU (time 50.797 s): 217.063 RLU
RLU (time 52.797 s): 250.29 RLU
RLU (time 54.797 s): 263.514 RLU
RLU (time 56.797 s): 298.678 RLU
RLU (time 58.797 s): 286.664 RLU
RLU (time 60.797 s): 326.636 RLU
RLU (time 62.797 s): 300.232 RLU
RLU (time 64.797 s): 322.977 RLU
RLU (time 66.797 s): 299.438 RLU
RLU (time 68.797 s): 333.279 RLU
RLU (time 70.797 s): 356.797 RLU
RLU (time 72.797 s): 351.722 RLU
RLU (time 74.797 s): 354.974 RLU
RLU (time 76.797 s): 350.201 RLU
RLU (time 78.797 s): 373.335 RLU
RLU (time 80.797 s): 363.865 RLU
RLU (time 82.797 s): 378.202 RLU
RLU (time 84.797 s): 377.793 RLU
RLU (time 86.797 s): 374.495 RLU
RLU (time 88.797 s): 427.432 RLU
RLU (time 90.797 s): 391.234 RLU
RLU (time 92.797 s): 431.574 RLU
RLU (time 94.797 s): 429.345 RLU
RLU (time 96.797 s): 437.253 RLU
RLU (time 98.797 s): 431.746 RLU
RLU (time 100.797 s): 440.351 RLU
RLU (time 102.797 s): 434.297 RLU
RLU (time 104.797 s): 432.91 RLU
RLU (time 106.797 s): 451.262 RLU
RLU (time 108.797 s): 460.201 RLU
RLU (time 110.797 s): 466.157 RLU
RLU (time 112.797 s): 486.092 RLU
RLU (time 114.797 s): 411.046 RLU
RLU (time 116.797 s): 482.073 RLU
RLU (time 118.797 s): 468.374 RLU
RLU (time 120.797 s): 468.931 RLU
RLU (time 122.797 s): 478.657 RLU
RLU (time 124.797 s): 472.922 RLU
RLU (time 126.797 s): 476.391 RLU
RLU (time 128.797 s): 502.505 RLU
RLU (time 130.797 s): 473.229 RLU
RLU (time 132.797 s): 511.515 RLU
RLU (time 134.797 s): 493.882 RLU
RLU (time 136.797 s): 440.117 RLU
SMILES: C[C@H](CCC(=O)O)[C@H]1CC[C@H]2[C@@H]3CC[C@@H]4C[C@H](O)CC[C@]4(C)[C@H]3C[C@H](O)[C@]12C [Deoxycholic Acid, deoxycholic acid]
